# Test results as given in article PMC9243654 (Frontiers in Nutrition, 2022).
# Where two headings read alike, the source gives them in different places.
# Columns and labels:
# [1] = ref PubChem database, cited from earlier work
# [2] = in vitro
# Experimental: The PAMPA-BBB assay was conducted according to the methodology followed by Di et al., with some modifications as described below ([15]). First, the BBB solution was prepared by dissolving 8 mg of PBL and 4 mg of cholesterol in 600 μl of n-dodecane. The initial donor solution was prepared by mixing 1 ml of extract (10 mg ml^−1 in EtOH) with 1 ml of buffer (PBS, pH = 7.4, 10 mM). The filter membrane of the donor plate was carefully coated with 5 μl of BBB solution. The acceptor plate was filled with 350 μl of buffer, and the donor plate was carefully assembled over the acceptor plate like a “sandwich.” Finally, the donor plate was filled with 350 μl of donor solution, covered, and incubated for 4 h at 37°C in the dark. After incubation time, 300 μl of the solution was taken from both plates, transferred to separate vials, and dried in the SpeedVac system at 40°C and 13 mbar pressure. Dried acceptor and donor solution were dissolved in 50 μl of pure EtOH before subjecting to UHPLC-Q-TOF-MS analysis. Permeability across in vitro BBB of the bioactive compound was measured according to Equation (1) ([25]), with some modifications in concentration rates.
# (1) Pe=-ln[1-CA(t)/Ce]/A^*(1/VD+1/VA)^*t
# Cequilibrium was calculated according to the following equation ([2]):
# (2) Cequilibrium=[CD(t)*VD+CA(t)*VA]/(VD+VA)
# [3] = compounds identified in LPLE extract
# [4] = compound within LPLE (Nothofagus pumilio, lenga PLE extract), classes based on Könczöl et al.
# [5] = compounds of RSFE extract, octanol-water partition coefficient
# [6] = PAMPA, pH 7.4, PAMPA-BBB log Pe (cm s−1)
# [7] = PAMPA, pH 7.4, PAMPA-BBB log Pe (cm s−1), compound within RSFE extract, 4 h, 37°C, PBS pH 7.4
structure (smiles),measurement,setting,value
CC(CC(=O)CC(C)C1CC(O)C2(C)C3=C(C(=O)CC12C)C1(C)CCC(O)C(C)(CO)C1CC3)C(=O)O (centres unmarked) [Ganolucidic acid C],Log P,[1]; [3],3.1
same,Log P,[1]; compounds of ASFE extract,3.1
same,Cross BBB potential,[2]; compound within ASFE extract,-
same,Cross BBB potential,[2]; [4],-
O=c1c(O[C@@H]2O[C@H](CO)[C@@H](O)[C@H](O)[C@H]2O)c(-c2ccc(O)cc2)oc2cc(O)cc(O)c12 [Kaempferol 3-O-β-D-glucoside],Log P,[1]; compounds of KD extract,2.37
same,Cross BBB potential,[2]; compound within KD extract,-
CC(C)C1=Cc2ccc3c(c2C(=O)C1=O)CCCC3(C)C [Rosmariquinone],Log P,[1]; [5],4.9
same,Cross BBB potential,[2]; PAMPA,++
same,PAMPA-BBB log Pe (cm s−1),"[2]; PAMPA, 4 h, pH 7.4",−5.00 cm s−1
O=C(O)C[C@H]1CCC(=O)[C@@H]1C/C=C\CCO [12- Hydroxyjasmonic acid],Log P,[1]; [5],0.4
same,Cross BBB potential,[2]; PAMPA,+++
same,PAMPA-BBB log Pe (cm s−1),"[2]; PAMPA, 4 h, pH 7.4",−4.06 cm s−1
O.Oc1cc(O)c2c(c1)O[C@H](c1ccc(O)c(O)c1)[C@@H](O)C2 [Catechin],Log P,[1]; [3],0.4
same,Log P,[1]; compounds of ASFE extract,0.4
same,Cross BBB potential,[2]; PAMPA,-
CC(CC(=O)C[C@@H](C)[C@H]1C[C@H](O)[C@@]2(C)C3=C(C(=O)C[C@]12C)[C@@]1(C)CC[C@H](O)C(C)(C)[C@@H]1CC3)C(=O)O (some centres unmarked) [Ganolucidic acid B],Log P,[1]; [3],3.8
same,Log P,[1]; compounds of ASFE extract,3.8
same,Cross BBB potential,[2]; compound within ASFE extract,-
same,Cross BBB potential,[2]; [4],-
C=C(C)[C@@H]1CC[C@]2(C(=O)O)CC[C@]3(C)[C@H](CC[C@@H]4[C@@]5(C)CC[C@H](O)[C@@](C)(CO)[C@@H]5CC[C@]43C)[C@@H]12 [Anemosapogenin],Log P,[1]; [5],7.5
same,Cross BBB potential,[2]; PAMPA,++ (key: -: not detected in acceptor; +: log Pe > −6.5; ++: log Pe > −5.5; +++: log Pe > −4.5)
same,PAMPA-BBB log Pe (cm s−1),"[2]; PAMPA, pH 7.4",−5.26 cm s−1
CC(C)c1cc2c(c(O)c1O)[C@@]13CCCC(C)(C)[C@@H]1[C@H](OC3=O)C2=O [Galdosol],Log P,[1]; [5],4
same,Cross BBB potential,[2]; PAMPA,+++
same,PAMPA-BBB log Pe (cm s−1),"[2]; PAMPA, 4 h, pH 7.4",−4.41 cm s−1
C=C(C)[C@@H]1CC[C@]2(C(=O)O)CC[C@]3(C)[C@H](CC[C@@H]4[C@@]5(C)CC[C@H](O)C(C)(C)[C@@H]5CC[C@]43C)[C@@H]12 [Betulinic acid],Log P,[1]; [5],8.2
same,Cross BBB potential,[2]; PAMPA,+
same,Papp at 4 h,[2]; [6],0.229 ×10⁻⁶ cm/s
O=C(O)CCCCCCCCCCCCCCC(=O)O [Hexadecanedioic acid],Log P,[1]; [3],5.4
same,Log P,[1]; compounds of ASFE extract,5.4
same,Cross BBB potential,[2]; compound within ASFE extract,-
same,Cross BBB potential,[2]; [4],-
CC/C=C/CC(O)C(O)/C=C/C(O)CCCCCCCC(=O)O (centres unmarked),Log P,[1]; [5],2.6
same,Cross BBB potential,[2]; PAMPA,+++
same,PAMPA-BBB log Pe (cm s−1),"[2]; PAMPA, 4 h, pH 7.4",−3.73 cm s−1
O=c1ccc2cc(O[C@@H]3O[C@H](CO)[C@@H](O)[C@H](O)[C@H]3O)c(O)cc2o1 [Esculin],Log P,[1]; [5],−0.6
same,Cross BBB potential,[2]; PAMPA,+++ (key: -: not detected in acceptor; +: log Pe > −6.5; ++: log Pe > −5.5; +++: log Pe > −4.5)
same,Papp,[2]; [6],50.1 ×10⁻⁶ cm/s
CC(C)c1cc2c(c(O)c1O)[C@@]13CCCC(C)(C)[C@@H]1[C@H](OC3=O)[C@H]2O [Rosmanol],Log P,[1]; [5],3.4
same,Papp at 4 h,[2]; [7],145 ×10⁻⁶ cm/s
same,Cross BBB potential,[2]; compound within RSFE extract,+++ (log Pe > −4.5)
C[C@@]12O[C@H]3C[C@@H](O1)[C@]1(C=O)[C@H]4[C@H](O)C[C@]5(C)[C@@H](c6ccc(=O)oc6)CC[C@]5(O)[C@@H]4CC[C@@]1(C3)O2 [Bryophyllin A],Log P,[1]; compounds of KD extract,0.6
same,Cross BBB potential,[2]; compound within KD extract,-
CC(=O)O[C@H]1CC[C@]2(CO)[C@H]3CC[C@]4(C)[C@@H](c5ccc(=O)oc5)CC[C@]4(O)[C@@H]3CC[C@]2(O)C1 [Hellebrigenol-3-monoacetate],Log P,[1]; compounds of KD extract,1.6
same,Cross BBB potential,[2]; compound within KD extract,++ (log Pe > −5.5)
same,PAMPA-BBB log Pe (cm s−1),"[2]; compound within KD extract, 4 h, 37°C, PBS pH 7.4",−4.70 cm s−1
"CCC(O)C1CC(C)C2(CC(=O)C3(C)C4=C(CCC32C)C2(C)CCC(=O)C(C)(CO)C2CC4)O1 [Triterpene*, (23S,24S)-17,23-Epoxy-24,29-dihydroxy-27-norlanost-8-ene-3,15-dione]",Log P,[1]; [3],3.6
same,Log P,[1]; compounds of ASFE extract,3.6
same,Cross BBB potential,[2]; PAMPA,++
same,PAMPA-BBB log Pe (cm s−1),"[2]; PAMPA, 4 h, pH 7.4",−4.97 cm s−1
same,PAMPA-BBB log Pe,"[2]; compound within LPLE (Nothofagus pumilio, lenga PLE extract), N.D = not detected in acceptor",−5.05 cm s−1
CC(C)c1cc2c(c(O)c1O)[C@@]13CCCC(C)(C)[C@@H]1C[C@@H]2OC3=O [Carnosol],Log P,[1]; [5],4.4
same,Papp at 4 h,[2]; [7],50.1 ×10⁻⁶ cm/s
same,Cross BBB potential,[2]; compound within RSFE extract,+++ (log Pe > −4.5)
O=C(O)c1ccc(O)cc1 [p-salycilic acid],Log P,[1]; [5],1.6
same,Cross BBB potential,[2]; compound within RSFE extract,+++ (log Pe > −4.5)
same,PAMPA-BBB log Pe (cm s−1),"[2]; compound within RSFE extract, 4 h, 37°C, PBS pH 7.4",−4.18 cm s−1
same,Cross BBB potential,[2]; compound within T33 extract,++ (log Pe > −5.5)
same,PAMPA-BBB log Pe (cm s−1),"[2]; compound within T33 extract, 4 h, 37°C, PBS pH 7.4",−4.75 cm s−1
